According to the supplement of paper PMC10307832:

Legend:
Test in all cases: relative viability (nuclei count vs DMSO), 5 days (fraction); higher = more cells survive
[1] = compound: COC1=C(C=C(C=C1)C2=CC3=NC=CN3C(=N2)NC4=C(C=CC=N4)C(=O)N)OC [BAY61-3606] + COc1cccc2cc(-c3nc([C@H]4CC[C@H](C(=O)O)CC4)n4ncnc(N)c34)[nH]c12 [OSI-027] (partner 0.5 µM)
How it was run: (§1)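 Five library-drug doses in √10 steps were combined with a fixed anchor-drug dose, or a single drug was given alone, by pin tool to lung cancer cell lines in 1536-well plates the day after seeding. Nuclei were stained and counted after 5 days. Relative viability is the nuclei count in treated wells over that in vehicle wells, taken as the median of duplicate plates.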

[2] = compound: COC1=C(C=C(C=C1)C2=CC3=NC=CN3C(=N2)NC4=C(C=CC=N4)C(=O)N)OC [BAY61-3606] + C[C@]1(O)C[C@@H](c2nc(-c3ccc4ccc(-c5ccccc5)nc4c3)c3c(N)nccn32)C1 [Linsitinib] (partner 1 µM)
How it was run: as §1

[3] = compound: COC1=C(C=C(C=C1)C2=CC3=NC=CN3C(=N2)NC4=C(C=CC=N4)C(=O)N)OC [BAY61-3606] + N=C(N)NC(=N)NCCc1ccccc1 [Phenformin] (partner 250 µM)
How it was run: as §1

[4] = compound: COc1cccc2c1C(=O)c1c(O)c3c(c(O)c1C2=O)C[C@@](O)(C(=O)CO)C[C@@H]3O[C@H]1C[C@H](N)[C@H](O)[C@H](C)O1 [Doxorubicin] + CCNC(=O)c1noc(-c2cc(C(C)C)c(O)cc2O)c1-c1ccc(CN2CCOCC2)cc1 [Luminespib] (partner 0.01 µM)
How it was run: as §1

Cell Line: NCI-H1755
- relative viability ([1]; first compound 0.02 µM): 0.743
- relative viability ([1]; first compound 0.06325 µM): 0.657
- relative viability ([1]; first compound 0.2 µM): 0.701
- relative viability ([1]; first compound 0.6325 µM): 0.712
- relative viability ([1]; first compound 2 µM): 0.671
- relative viability ([2]; first compound 0.02 µM): 1.06
- relative viability ([2]; first compound 0.06325 µM): 1.04
- relative viability ([2]; first compound 0.2 µM): 1.03
- relative viability ([2]; first compound 0.6325 µM): 0.981
- relative viability ([2]; first compound 2 µM): 0.974
- relative viability ([3]; first compound 0.02 µM): 0.666
- relative viability ([3]; first compound 0.06325 µM): 0.6
- relative viability ([3]; first compound 0.2 µM): 0.578
- relative viability ([3]; first compound 0.6325 µM): 0.656
- relative viability ([3]; first compound 2 µM): 0.59
- relative viability ([4]; first compound 0.001 µM): 0.361
- relative viability ([4]; first compound 0.003162 µM): 0.273
- relative viability ([4]; first compound 0.01 µM): 0.597
- relative viability ([4]; first compound 0.03162 µM): 0.381
- relative viability ([4]; first compound 0.1 µM): 0.323

Cell Line: H3255
- relative viability ([1]; first compound 0.02 µM): 0.529
- relative viability ([1]; first compound 0.06325 µM): 0.549
- relative viability ([1]; first compound 0.2 µM): 0.642
- relative viability ([1]; first compound 0.6325 µM): 0.736
- relative viability ([1]; first compound 2 µM): 0.546
- relative viability ([2]; first compound 0.02 µM): 0.989
- relative viability ([2]; first compound 0.06325 µM): 0.987
- relative viability ([2]; first compound 0.2 µM): 1.07
- relative viability ([2]; first compound 0.6325 µM): 1.18
- relative viability ([2]; first compound 2 µM): 0.854
- relative viability ([3]; first compound 0.02 µM): 0.351
- relative viability ([3]; first compound 0.06325 µM): 0.342
- relative viability ([3]; first compound 0.2 µM): 0.371
- relative viability ([3]; first compound 0.6325 µM): 0.399
- relative viability ([3]; first compound 2 µM): 0.342
- relative viability ([4]; first compound 0.001 µM): 0.982
- relative viability ([4]; first compound 0.003162 µM): 0.84
- relative viability ([4]; first compound 0.01 µM): 0.841
- relative viability ([4]; first compound 0.03162 µM): 0.75
- relative viability ([4]; first compound 0.1 µM): 0.829

Cell Line: 201T
- relative viability ([1]; first compound 0.02 µM): 0.759
- relative viability ([1]; first compound 0.2 µM): 0.703
- relative viability ([1]; first compound 0.6325 µM): 0.661
- relative viability ([1]; first compound 2 µM): 0.512
- relative viability ([2]; first compound 0.02 µM): 1.05
- relative viability ([2]; first compound 0.06325 µM): 0.975
- relative viability ([2]; first compound 0.2 µM): 0.972
- relative viability ([2]; first compound 0.6325 µM): 1.01
- relative viability ([2]; first compound 2 µM): 1.07
- relative viability ([3]; first compound 0.02 µM): 0.461
- relative viability ([3]; first compound 0.06325 µM): 0.425
- relative viability ([3]; first compound 0.2 µM): 0.449
- relative viability ([3]; first compound 0.6325 µM): 0.511
- relative viability ([3]; first compound 2 µM): 0.444
- relative viability ([4]; first compound 0.001 µM): 1.03
- relative viability ([4]; first compound 0.003162 µM): 1.08
- relative viability ([4]; first compound 0.01 µM): 1.04
- relative viability ([4]; first compound 0.03162 µM): 1.01
- relative viability ([4]; first compound 0.1 µM): 1.11

Cell Line: NCI-H2228
- relative viability ([1]; first compound 0.02 µM): 0.885
- relative viability ([1]; first compound 0.06325 µM): 0.451
- relative viability ([1]; first compound 0.2 µM): 0.594
- relative viability ([1]; first compound 0.6325 µM): 0.495
- relative viability ([1]; first compound 2 µM): 0.293
- relative viability ([2]; first compound 0.02 µM): 0.663
- relative viability ([2]; first compound 0.06325 µM): 0.552
- relative viability ([2]; first compound 0.2 µM): 0.668
- relative viability ([2]; first compound 0.6325 µM): 0.714
- relative viability ([2]; first compound 2 µM): 0.496
- relative viability ([3]; first compound 0.02 µM): 0.37
- relative viability ([3]; first compound 0.06325 µM): 0.294
- relative viability ([3]; first compound 0.2 µM): 0.368
- relative viability ([3]; first compound 0.6325 µM): 0.276
- relative viability ([3]; first compound 2 µM): 0.26
- relative viability ([4]; first compound 0.001 µM): 0.208
- relative viability ([4]; first compound 0.003162 µM): 0.139
- relative viability ([4]; first compound 0.01 µM): 0.2
- relative viability ([4]; first compound 0.03162 µM): 0.151
- relative viability ([4]; first compound 0.1 µM): 0.135

Cell Line: CAL-12T
- relative viability ([1]; first compound 0.02 µM): 0.674
- relative viability ([1]; first compound 0.06325 µM): 0.593
- relative viability ([1]; first compound 0.2 µM): 0.616
- relative viability ([1]; first compound 0.6325 µM): 0.605
- relative viability ([1]; first compound 2 µM): 0.269
- relative viability ([2]; first compound 0.02 µM): 0.903
- relative viability ([2]; first compound 0.06325 µM): 0.755
- relative viability ([2]; first compound 0.2 µM): 0.818
- relative viability ([2]; first compound 0.6325 µM): 0.85
- relative viability ([2]; first compound 2 µM): 0.388
- relative viability ([3]; first compound 0.02 µM): 0.559
- relative viability ([3]; first compound 0.06325 µM): 0.592
- relative viability ([3]; first compound 0.2 µM): 0.502
- relative viability ([3]; first compound 0.6325 µM): 0.557
- relative viability ([3]; first compound 2 µM): 0.266
- relative viability ([4]; first compound 0.001 µM): 0.523
- relative viability ([4]; first compound 0.003162 µM): 0.394
- relative viability ([4]; first compound 0.01 µM): 0.555
- relative viability ([4]; first compound 0.03162 µM): 0.289
- relative viability ([4]; first compound 0.1 µM): 0.239

Cell Line: NCI-H661
- relative viability ([1]; first compound 0.02 µM): 0.707
- relative viability ([1]; first compound 0.06325 µM): 0.742
- relative viability ([1]; first compound 0.2 µM): 0.734
- relative viability ([1]; first compound 0.6325 µM): 0.699
- relative viability ([1]; first compound 2 µM): 0.505
- relative viability ([2]; first compound 0.02 µM): 0.868
- relative viability ([2]; first compound 0.06325 µM): 0.484
- relative viability ([2]; first compound 0.2 µM): 0.627
- relative viability ([2]; first compound 0.6325 µM): 0.616
- relative viability ([2]; first compound 2 µM): 0.405
- relative viability ([3]; first compound 0.02 µM): 0.271
- relative viability ([3]; first compound 0.06325 µM): 0.283
- relative viability ([3]; first compound 0.2 µM): 0.28
- relative viability ([3]; first compound 0.6325 µM): 0.254
- relative viability ([3]; first compound 2 µM): 0.248
- relative viability ([4]; first compound 0.001 µM): 0.915
- relative viability ([4]; first compound 0.003162 µM): 0.909
- relative viability ([4]; first compound 0.01 µM): 0.858
- relative viability ([4]; first compound 0.03162 µM): 0.574
- relative viability ([4]; first compound 0.1 µM): 0.378

Cell Line: NCI-H1792
- relative viability ([1]; first compound 0.02 µM): 0.756
- relative viability ([1]; first compound 0.06325 µM): 0.716
- relative viability ([1]; first compound 0.2 µM): 0.712
- relative viability ([1]; first compound 0.6325 µM): 0.644
- relative viability ([1]; first compound 2 µM): 0.528
- relative viability ([2]; first compound 0.02 µM): 0.531
- relative viability ([2]; first compound 0.06325 µM): 0.494
- relative viability ([2]; first compound 0.2 µM): 0.591
- relative viability ([2]; first compound 0.6325 µM): 0.627
- relative viability ([2]; first compound 2 µM): 0.627
- relative viability ([3]; first compound 0.02 µM): 0.37
- relative viability ([3]; first compound 0.2 µM): 0.336
- relative viability ([3]; first compound 0.6325 µM): 0.544
- relative viability ([3]; first compound 2 µM): 0.333
- relative viability ([4]; first compound 0.003162 µM): 0.467
- relative viability ([4]; first compound 0.01 µM): 0.43
- relative viability ([4]; first compound 0.03162 µM): 0.527
- relative viability ([4]; first compound 0.1 µM): 0.328

Cell Line: NCI-H2085
- relative viability ([1]; first compound 0.02 µM): 0.868
- relative viability ([1]; first compound 0.06325 µM): 0.901
- relative viability ([1]; first compound 0.2 µM): 0.711
- relative viability ([1]; first compound 0.6325 µM): 0.769
- relative viability ([1]; first compound 2 µM): 0.53
- relative viability ([2]; first compound 0.02 µM): 0.977
- relative viability ([2]; first compound 0.06325 µM): 0.931
- relative viability ([2]; first compound 0.2 µM): 0.853
- relative viability ([2]; first compound 0.6325 µM): 0.813
- relative viability ([2]; first compound 2 µM): 0.871
- relative viability ([3]; first compound 0.02 µM): 0.793
- relative viability ([3]; first compound 0.06325 µM): 0.755
- relative viability ([3]; first compound 0.2 µM): 0.717
- relative viability ([3]; first compound 0.6325 µM): 0.757
- relative viability ([3]; first compound 2 µM): 0.64
- relative viability ([4]; first compound 0.001 µM): 0.471
- relative viability ([4]; first compound 0.003162 µM): 0.462
- relative viability ([4]; first compound 0.01 µM): 0.46
- relative viability ([4]; first compound 0.03162 µM): 0.47
- relative viability ([4]; first compound 0.1 µM): 0.478

Cell Line: NCI-H2023
- relative viability ([1]; first compound 0.02 µM): 0.471
- relative viability ([1]; first compound 0.06325 µM): 0.359
- relative viability ([1]; first compound 0.2 µM): 0.37
- relative viability ([1]; first compound 0.6325 µM): 0.402
- relative viability ([1]; first compound 2 µM): 0.19
- relative viability ([2]; first compound 0.02 µM): 0.703
- relative viability ([2]; first compound 0.06325 µM): 0.681
- relative viability ([2]; first compound 0.2 µM): 0.779
- relative viability ([2]; first compound 0.6325 µM): 0.715
- relative viability ([2]; first compound 2 µM): 0.557
- relative viability ([3]; first compound 0.02 µM): 0.491
- relative viability ([3]; first compound 0.06325 µM): 0.369
- relative viability ([3]; first compound 0.2 µM): 0.386
- relative viability ([3]; first compound 0.6325 µM): 0.438
- relative viability ([3]; first compound 2 µM): 0.322
- relative viability ([4]; first compound 0.001 µM): 0.765
- relative viability ([4]; first compound 0.003162 µM): 0.677
- relative viability ([4]; first compound 0.01 µM): 0.243
- relative viability ([4]; first compound 0.03162 µM): 0.0918
- relative viability ([4]; first compound 0.1 µM): 0.0632
